pIC50: −log10 of the molar value.
How the values were obtained:
[1] = target: Tyrosine-protein kinase Fyn (Homo sapiens) (UniProt P06241); test: Inhibition of human FYN assessed as residual activity at 1 uM using polyEY as substrate in presence of 33P-ATP by ProQinase assay relative to control
[2] = target: Proto-oncogene tyrosine-protein kinase ROS (Homo sapiens) (UniProt P08922); test: Inhibition of ROS1 (unknown origin) assessed as remaining activity at 1 uM by Kinome scan method relative to control
[3] = target: Phosphatidylinositol 4,5-bisphosphate 3-kinase catalytic subunit alpha isoform (Homo sapiens) (UniProt P42336); test: Inhibition of PIK3CA (unknown origin) assessed as remaining activity at 1 uM by Kinome scan method relative to control
[4] = target: Receptor-interacting serine/threonine-protein kinase 2 (Homo sapiens) (UniProt O43353); test: Inhibition of human RIPK2 assessed as residual activity at 1 uM using RBER-CHKtide as substrate in presence of 33P-ATP by ProQinase assay relative to control
[5] = target: Tyrosine-protein kinase receptor TYRO3 (Homo sapiens) (UniProt Q06418); test: Inhibition of human TYRO3 assessed as residual activity at 1 uM using PolyEY as substrate in presence of 33P-ATP by ProQinase assay relative to control
[6] = tested on: Epidermal growth factor receptor (Homo sapiens), P00533 [UNDEFINED MUTATION]; test: Inhibition of human EGFR d752-759 mutant assessed as residual activity at 1 uM using PolyEY as substrate in presence of 33P-ATP by ProQinase assay relative to control
Sequence of Epidermal growth factor receptor (Homo sapiens), P00533 [UNDEFINED MUTATION] (P00533 whole entry, looked up, stated change not applied): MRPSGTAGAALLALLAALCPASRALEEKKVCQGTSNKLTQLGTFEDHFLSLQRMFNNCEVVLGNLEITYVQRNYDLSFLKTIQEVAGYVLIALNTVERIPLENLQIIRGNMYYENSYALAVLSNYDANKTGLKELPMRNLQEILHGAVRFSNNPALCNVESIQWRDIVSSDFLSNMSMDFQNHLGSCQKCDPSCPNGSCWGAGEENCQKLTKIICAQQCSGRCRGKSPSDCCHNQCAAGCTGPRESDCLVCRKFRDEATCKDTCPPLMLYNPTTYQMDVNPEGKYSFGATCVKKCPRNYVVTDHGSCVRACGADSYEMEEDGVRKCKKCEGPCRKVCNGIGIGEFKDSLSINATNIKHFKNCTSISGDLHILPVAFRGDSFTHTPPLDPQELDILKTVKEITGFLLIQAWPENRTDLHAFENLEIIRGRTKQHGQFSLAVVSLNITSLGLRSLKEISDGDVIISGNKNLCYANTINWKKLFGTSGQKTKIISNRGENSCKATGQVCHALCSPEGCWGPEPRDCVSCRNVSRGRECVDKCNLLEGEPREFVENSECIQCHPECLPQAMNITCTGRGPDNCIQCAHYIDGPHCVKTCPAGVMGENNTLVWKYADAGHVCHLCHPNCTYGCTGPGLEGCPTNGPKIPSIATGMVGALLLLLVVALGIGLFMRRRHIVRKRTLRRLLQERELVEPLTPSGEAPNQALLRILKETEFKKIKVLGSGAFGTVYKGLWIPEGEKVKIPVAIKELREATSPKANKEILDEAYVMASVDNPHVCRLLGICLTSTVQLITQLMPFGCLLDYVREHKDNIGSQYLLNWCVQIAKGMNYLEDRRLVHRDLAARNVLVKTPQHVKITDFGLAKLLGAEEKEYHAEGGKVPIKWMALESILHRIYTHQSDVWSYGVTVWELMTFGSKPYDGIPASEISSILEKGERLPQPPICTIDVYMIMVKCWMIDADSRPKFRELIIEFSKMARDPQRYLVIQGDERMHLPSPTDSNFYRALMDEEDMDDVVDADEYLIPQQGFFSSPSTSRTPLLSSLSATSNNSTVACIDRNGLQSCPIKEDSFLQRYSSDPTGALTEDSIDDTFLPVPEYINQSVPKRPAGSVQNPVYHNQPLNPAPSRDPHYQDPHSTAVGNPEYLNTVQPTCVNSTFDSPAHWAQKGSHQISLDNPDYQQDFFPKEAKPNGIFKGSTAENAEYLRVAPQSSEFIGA

[7] = Anti-inflammatory activity against human derived medium respond PBMC cells assessed as inhibition in stimulated IL-10 cytokine release incubated for 2 hrs in the presence of LPS/SEB/aCD28 by Luminex based sandwich immunoassay; assay type: functional, cell-based
[8] = target: Serine/threonine-protein kinase 24 (Homo sapiens) (UniProt Q9Y6E0); test: Inhibition of human MST3 assessed as residual activity at 1 uM using casein as substrate in presence of 33P-ATP by ProQinase assay relative to control
[9] = target: Receptor tyrosine-protein kinase erbB-4 (Homo sapiens) (UniProt Q15303); test: Inhibition of ERBB4 (unknown origin) assessed as remaining activity at 1 uM by Kinome scan method relative to control
[10] = target: AP2-associated protein kinase 1 (Homo sapiens) (UniProt Q2M2I8); test: Inhibition of AAK1 (unknown origin) assessed as remaining activity at 1 uM by Kinome scan method relative to control
Sequence of AP2-associated protein kinase 1 (Homo sapiens) (Q2M2I8 whole entry, looked up): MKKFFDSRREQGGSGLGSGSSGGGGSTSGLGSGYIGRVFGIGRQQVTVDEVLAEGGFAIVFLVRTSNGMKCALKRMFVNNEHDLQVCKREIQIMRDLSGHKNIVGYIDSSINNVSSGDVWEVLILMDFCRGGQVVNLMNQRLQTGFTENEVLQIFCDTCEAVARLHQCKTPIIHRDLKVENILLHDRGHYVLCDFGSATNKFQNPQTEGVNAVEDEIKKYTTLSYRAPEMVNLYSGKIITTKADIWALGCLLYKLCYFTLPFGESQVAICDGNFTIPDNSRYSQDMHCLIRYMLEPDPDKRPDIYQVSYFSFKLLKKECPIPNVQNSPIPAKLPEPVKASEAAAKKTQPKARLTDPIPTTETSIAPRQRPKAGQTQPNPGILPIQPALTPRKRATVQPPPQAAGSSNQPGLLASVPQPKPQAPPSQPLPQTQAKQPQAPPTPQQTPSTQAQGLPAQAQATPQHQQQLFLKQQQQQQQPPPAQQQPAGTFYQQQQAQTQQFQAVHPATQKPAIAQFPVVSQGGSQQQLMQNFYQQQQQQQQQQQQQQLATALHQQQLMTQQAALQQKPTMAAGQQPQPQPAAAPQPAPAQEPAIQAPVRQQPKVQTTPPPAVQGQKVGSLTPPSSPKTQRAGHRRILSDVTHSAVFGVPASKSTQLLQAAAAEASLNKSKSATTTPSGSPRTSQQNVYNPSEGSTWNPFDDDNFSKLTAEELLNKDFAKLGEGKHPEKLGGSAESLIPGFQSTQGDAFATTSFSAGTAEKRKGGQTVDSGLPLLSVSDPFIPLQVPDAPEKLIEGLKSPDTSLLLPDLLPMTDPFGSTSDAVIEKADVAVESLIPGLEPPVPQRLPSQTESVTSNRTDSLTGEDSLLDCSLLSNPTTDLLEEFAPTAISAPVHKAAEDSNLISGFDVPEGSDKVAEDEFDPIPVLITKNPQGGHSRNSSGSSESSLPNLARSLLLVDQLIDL

[11] = target: CDK6/cyclin D1 (Homo sapiens) (UniProt P24385+Q00534); test: Inhibition of human CDK6/CycD1 assessed as residual activity at 1 uM using RBER-CHKtide as substrate in presence of 33P-ATP by ProQinase assay relative to control; assay type: protein-complex assay
[12] = target: Ephrin type-A receptor 4 (Homo sapiens) (UniProt P54764); test: Inhibition of EPHA4 (unknown origin) assessed as remaining activity at 1 uM by Kinome scan method relative to control
[13] = target: CDK2/Cyclin A2 (Homo sapiens) (UniProt P24941+P20248); test: Inhibition of human CDK2/CycA2 assessed as residual activity at 1 uM using RBER-CHKtide as substrate in presence of 33P-ATP by ProQinase assay relative to control; assay type: protein-complex assay
[14] = Anti-inflammatory activity against human derived medium respond PBMC cells assessed as inhibition in stimulated IL-1beta cytokine release incubated for 2 hrs in the presence of LPS/SEB/aCD28 by Luminex based sandwich immunoassay; assay type: functional, cell-based
[15] = target: Serine/threonine-protein kinase Nek5 (Homo sapiens) (UniProt Q6P3R8); test: Inhibition of NEK5 (unknown origin) assessed as remaining activity at 1 uM by Kinome scan method relative to control
[16] = target: Serine/threonine-protein kinase SIK1 (Homo sapiens) (UniProt P57059); test: Inhibition of SIK (unknown origin) assessed as remaining activity at 1 uM by Kinome scan method relative to control
[17] = target: Serine/threonine-protein kinase ULK3 (Homo sapiens) (UniProt Q6PHR2); test: Inhibition of ULK3 (unknown origin) assessed as remaining activity at 1 uM by Kinome scan method relative to control
[18] = target: Serine/threonine-protein kinase PAK 3 (Homo sapiens) (UniProt O75914); test: Inhibition of PAK3 (unknown origin) assessed as remaining activity at 1 uM by Kinome scan method relative to control
Sequence of Serine/threonine-protein kinase PAK 3 (Homo sapiens) (O75914 whole entry, looked up): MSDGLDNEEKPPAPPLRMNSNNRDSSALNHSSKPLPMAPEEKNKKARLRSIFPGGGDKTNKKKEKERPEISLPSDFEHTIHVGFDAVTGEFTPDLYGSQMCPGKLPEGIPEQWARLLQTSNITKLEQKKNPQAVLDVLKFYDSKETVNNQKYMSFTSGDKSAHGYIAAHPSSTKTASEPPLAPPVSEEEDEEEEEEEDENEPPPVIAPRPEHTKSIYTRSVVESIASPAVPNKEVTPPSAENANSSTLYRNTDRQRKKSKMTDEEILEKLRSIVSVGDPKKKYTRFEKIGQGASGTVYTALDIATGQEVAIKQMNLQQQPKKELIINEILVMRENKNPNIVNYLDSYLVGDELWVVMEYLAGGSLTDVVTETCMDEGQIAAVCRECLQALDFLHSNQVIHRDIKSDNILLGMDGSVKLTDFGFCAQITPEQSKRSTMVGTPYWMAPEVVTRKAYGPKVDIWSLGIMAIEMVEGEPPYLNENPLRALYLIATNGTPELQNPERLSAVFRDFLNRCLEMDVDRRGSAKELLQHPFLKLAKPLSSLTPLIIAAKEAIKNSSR

[19] = target: T1, Testis-specific serine/threonine-protein kinase 1 (Homo sapiens) (UniProt Q9BXA7); test: Inhibition of human TSSK1 assessed as residual activity at 1 uM using RBER-CHKtide as substrate in presence of 33P-ATP by ProQinase assay relative to control
T1 sequence (whole entry): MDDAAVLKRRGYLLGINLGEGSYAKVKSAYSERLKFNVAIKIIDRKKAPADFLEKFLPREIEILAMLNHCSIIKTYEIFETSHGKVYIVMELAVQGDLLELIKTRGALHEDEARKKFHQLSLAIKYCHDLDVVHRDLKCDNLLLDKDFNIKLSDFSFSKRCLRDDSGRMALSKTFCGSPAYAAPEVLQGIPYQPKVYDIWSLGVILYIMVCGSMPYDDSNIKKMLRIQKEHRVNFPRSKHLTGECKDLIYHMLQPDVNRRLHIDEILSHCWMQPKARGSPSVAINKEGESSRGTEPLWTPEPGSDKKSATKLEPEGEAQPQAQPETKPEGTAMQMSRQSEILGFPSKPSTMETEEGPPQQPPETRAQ

[20] = tested on: Platelet-derived growth factor receptor alpha (Homo sapiens), P16234 [T674I]; test: Inhibition of human PDGFRalpha T674I mutant assessed as residual activity at 1 uM using Poly(Ala,Glu,Lys,Tyr)6:2:5:1 as substrate in presence of 33P-ATP by ProQinase assay relative to control
Sequence of Platelet-derived growth factor receptor alpha (Homo sapiens), P16234 [T674I] (P16234 whole entry T674I): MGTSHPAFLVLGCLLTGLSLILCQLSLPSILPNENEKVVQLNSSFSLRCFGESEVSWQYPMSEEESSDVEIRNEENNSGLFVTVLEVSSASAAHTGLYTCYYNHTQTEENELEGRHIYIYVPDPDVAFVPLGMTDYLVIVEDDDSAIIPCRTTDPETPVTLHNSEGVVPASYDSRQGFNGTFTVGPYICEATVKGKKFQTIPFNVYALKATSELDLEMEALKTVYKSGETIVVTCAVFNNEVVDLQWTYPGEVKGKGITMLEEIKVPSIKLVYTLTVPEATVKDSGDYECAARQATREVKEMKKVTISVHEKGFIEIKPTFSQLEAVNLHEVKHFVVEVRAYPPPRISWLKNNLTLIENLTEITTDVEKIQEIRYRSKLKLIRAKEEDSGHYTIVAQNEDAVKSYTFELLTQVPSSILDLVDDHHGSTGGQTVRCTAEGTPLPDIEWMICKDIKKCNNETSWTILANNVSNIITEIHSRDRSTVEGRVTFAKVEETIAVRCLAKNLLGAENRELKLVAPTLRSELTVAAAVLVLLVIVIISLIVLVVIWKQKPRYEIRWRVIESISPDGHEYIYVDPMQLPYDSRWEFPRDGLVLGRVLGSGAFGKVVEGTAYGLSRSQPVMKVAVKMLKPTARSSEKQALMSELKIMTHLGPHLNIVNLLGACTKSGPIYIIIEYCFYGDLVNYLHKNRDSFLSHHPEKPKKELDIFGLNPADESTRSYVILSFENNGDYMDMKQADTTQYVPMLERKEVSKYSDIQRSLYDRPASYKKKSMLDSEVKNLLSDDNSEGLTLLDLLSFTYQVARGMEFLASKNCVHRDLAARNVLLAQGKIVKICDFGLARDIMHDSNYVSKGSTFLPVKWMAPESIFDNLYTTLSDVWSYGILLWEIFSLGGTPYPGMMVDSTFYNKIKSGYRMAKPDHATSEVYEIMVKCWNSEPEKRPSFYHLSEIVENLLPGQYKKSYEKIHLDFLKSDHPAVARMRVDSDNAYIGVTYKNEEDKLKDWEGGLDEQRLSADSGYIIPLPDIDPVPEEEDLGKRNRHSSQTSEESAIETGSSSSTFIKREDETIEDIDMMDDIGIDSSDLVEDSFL

[21] = tested on: Leucine-rich repeat serine/threonine-protein kinase 2 (Homo sapiens), Q5S007 [I2020T]; test: Inhibition of human LRRK2 I2020T mutant assessed as residual activity at 1 uM using RBER-CHKtide as substrate in presence of 33P-ATP by ProQinase assay relative to control
[22] = target: Serine/threonine-protein kinase Nek3 (Homo sapiens) (UniProt P51956); test: Inhibition of human NEK3 assessed as residual activity at 1 uM using RBER-CHKtide as substrate in presence of 33P-ATP by ProQinase assay relative to control
[23] = target: Lymphokine-activated killer T-cell-originated protein kinase (Homo sapiens) (UniProt Q96KB5); test: Inhibition of human PBK assessed as residual activity at 1 uM using histon H1 as substrate in presence of 33P-ATP by ProQinase assay relative to control
Sequence of Lymphokine-activated killer T-cell-originated protein kinase (Homo sapiens) (Q96KB5 whole entry): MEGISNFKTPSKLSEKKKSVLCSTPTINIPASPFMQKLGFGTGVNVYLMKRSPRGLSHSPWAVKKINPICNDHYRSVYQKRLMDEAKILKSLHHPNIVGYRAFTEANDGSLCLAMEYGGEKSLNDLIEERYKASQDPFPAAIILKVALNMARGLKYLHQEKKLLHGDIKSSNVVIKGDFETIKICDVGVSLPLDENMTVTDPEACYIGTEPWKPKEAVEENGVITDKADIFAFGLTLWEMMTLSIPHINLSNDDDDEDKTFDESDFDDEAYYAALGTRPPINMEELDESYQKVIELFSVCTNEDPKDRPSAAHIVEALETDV

[24] = target: Dual specificity tyrosine-phosphorylation-regulated kinase 4 (Homo sapiens) (UniProt Q9NR20); test: Inhibition of human DYRK4 assessed as residual activity at 1 uM using RBER-CHKtide as substrate in presence of 33P-ATP by ProQinase assay relative to control
Sequence of Dual specificity tyrosine-phosphorylation-regulated kinase 4 (Homo sapiens) (Q9NR20 whole entry): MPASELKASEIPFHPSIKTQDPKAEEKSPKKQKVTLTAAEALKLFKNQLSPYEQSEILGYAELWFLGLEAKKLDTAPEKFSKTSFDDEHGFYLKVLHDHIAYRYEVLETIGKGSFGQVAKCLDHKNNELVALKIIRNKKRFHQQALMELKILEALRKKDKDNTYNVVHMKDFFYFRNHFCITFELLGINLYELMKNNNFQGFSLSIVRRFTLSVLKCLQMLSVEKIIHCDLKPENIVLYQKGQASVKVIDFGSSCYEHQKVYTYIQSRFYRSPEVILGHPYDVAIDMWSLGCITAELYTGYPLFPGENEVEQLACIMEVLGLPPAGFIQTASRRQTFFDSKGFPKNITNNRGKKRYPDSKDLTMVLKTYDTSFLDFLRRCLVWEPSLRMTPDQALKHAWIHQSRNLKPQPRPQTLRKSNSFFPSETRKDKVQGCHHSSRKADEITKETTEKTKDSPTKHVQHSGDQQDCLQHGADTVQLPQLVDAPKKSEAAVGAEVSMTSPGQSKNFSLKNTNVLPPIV

[25] = tested on: Proto-oncogene tyrosine-protein kinase receptor Ret (Homo sapiens), P07949 [M918T]; test: Inhibition of RET M918T (unknown origin) assessed as remaining activity at 1 uM by Kinome scan method relative to control

Which Activity [1] does the source give for `O=C1c2ccc(Nc3ccc(F)cc3F)cc2CCc2ccc(OC[C@H](O)CO)cc21` [Skepinone-L] here?
The Activity was 124%.

What about the Activity [2] of the same compound?
The Activity was 99%.

And the Activity [3]?
The Activity was 100%.

And the Activity [4]?
The Activity was 77%.

What about the Activity [5] of the same compound?
Its Activity is 108%.

What about the Activity [6] of the same compound?
Its Activity is 83%.

What about the pIC50 [7] of the same compound?
The pIC50 was 7.22.

What about the Activity [8] of the same compound?
Its Activity is 106%.

And the Activity [9]?
Its Activity is 97%.

And the Activity [10]?
Its Activity is 100%.

And the Activity [11]?
Its Activity is 88%.

What about the Activity [12] of the same compound?
Its Activity is 100%.

What about the Activity [13] of the same compound?
The Activity was 101%.

And the pIC50 [14]?
The pIC50 was 5.80.

And the Activity [15]?
Its Activity is 100%.

What about the Activity [16] of the same compound?
Its Activity is 100%.

What about the Activity [17] of the same compound?
Its Activity is 100%.

What about the Activity [18] of the same compound?
Its Activity is 100%.

What about the Activity [19] of the same compound?
Its Activity is 90%.

And the Activity [20]?
Its Activity is 97%.

What about the Activity [21] of the same compound?
The Activity was 94%.

What about the Activity [22] of the same compound?
The Activity was 85%.

What about the Activity [23] of the same compound?
The Activity was 113%.

What about the Activity [24] of the same compound?
The Activity was 93%.

And the Activity [25]?
The Activity was 100%.
